# Source: paper PMC9188596, “Structural basis of resistance to herbicides that target acetohydroxyacid synthase” (Nature Communications, 2022)
# “And” between values parts separate entries of the source, which are not always exact repeats. Equal values may be shown once. “Also recorded” adds a separate entry of the source. Read-outs that look alike come from different tables or passages of the source.
# Experiments:
# AtAHAS P197L mutant [1] = target: T1, AtAHAS P197L mutant (Arabidopsis thaliana, UniProt P17597, P197L); experiment: biochemical
# Experimental: (§1) Standard assays were performed using a continuous spectrophotometric method measuring the disappearance of pyruvate. The standard buffer contained 50 mM potassium phosphate, pH 7.2, 1 mM ThDP, 10 mM MgCl2, and 10 µM FAD. The concentration of pyruvate was in the range 100–160 mM, as described in the text, methods, or figure legends.
# (§2) Supplementary Figure 6. Measurement of the Ki values for WT AtAHAS and the mutants.
# (§3) The error bars represent the standard error of the mean of two independent replicates. [I] =
# (§4) inhibitor concentration. Source data are provided with this paper.
# (§5) (1 picture or pasted object on this page, not shown here)
# AtAHAS P197T mutant [2] = target: T2, AtAHAS P197T mutant (Arabidopsis thaliana, UniProt P17597, P197T); experiment: biochemical
# Experimental: as §1, §2, §3, §4, §5
# AtAHAS S653T mutant [3] = target: T3, AtAHAS S653T mutant (Arabidopsis thaliana, UniProt P17597, S653T); experiment: biochemical
# Experimental: as §1, §2, §3, §4, §5
# AtAHAS W574L mutant [4] = target: T4, AtAHAS W574L mutant (Arabidopsis thaliana, UniProt P17597, W574L); experiment: biochemical; conditions: for increase in Ki / loss of affinity compared to WT: W574L vs WT
# Experimental: as §1, §2, §3, §4, §5
# WT AtAHAS [5] = target: T5, WT AtAHAS (Arabidopsis thaliana, UniProt P17597); assay type: biochemical; conditions: for k3 (rate of recovery) / kiapp (apparent rate of enzyme inactivation): 160 mM pyruvate, 30 °C, ± SEM; for k3, single progress curve (Supplementary Figure 8) / kiapp, single progress curve (Supplementary Figure 8): individual replicate of triplicate
# Experimental: as §1
# (§6) AtAHAS was assayed in the standard assay buffer containing 160 mM pyruvate, at 30 °C. For AtAHAS activation the progress curve corresponding to the lag-phase was fitted to Eq. (8) of Lonhienne et al.[14]. For the time dependent accumulative inhibition of AtAHAS the progress curves were fitted to Equation 9 of Lonhienne et al.[12].
# (§7) Supplementary Figure 8. Measurement of the rate constants of accumulative inhibition for WT AtAHAS and its mutants. The progress curves were fitted to the equation of accumulative inhibition (Equation 7 2). The rate constants of enzyme inactivation ( kiapp) and enzyme recovery (k3) were measured in triplicate. Source data are provided with this paper.
# AtAHAS P197L mutant [6] = target: T1, AtAHAS P197L mutant; assay type: biochemical; conditions: for k3 (rate of recovery) / kiapp (apparent rate of enzyme inactivation): 160 mM pyruvate, 30 °C; for k3 (rate of recovery) / kiapp (apparent rate of enzyme inactivation) / kiapp/k3 (efficiency of accumulative inhibition): NAI = no accumulative inhibition detected
# Experimental: as §1, §6
# as §7, with “paper. […]” for “paper.”
# AtAHAS P197T mutant [7] = target: T2, AtAHAS P197T mutant; assay type: biochemical; conditions: for k3 (rate of recovery) / kiapp (apparent rate of enzyme inactivation): 160 mM pyruvate, 30 °C; for k3 (rate of recovery) / kiapp (apparent rate of enzyme inactivation) / kiapp/k3 (efficiency of accumulative inhibition): NAI = no accumulative inhibition detected
# Experimental: as §1, §6
# as §7, with “paper. […]” for “paper.”
# AtAHAS S653T mutant [8] = target: T3, AtAHAS S653T mutant; assay type: biochemical; conditions: for kiapp/k3 (efficiency of accumulative inhibition) / k3 (rate of recovery) / kiapp (apparent rate of enzyme inactivation) / k3, single progress curve (Supplementary Figure 8) / kiapp, single progress curve (Supplementary Figure 8): S653T; for efficiency of accumulative inhibition (kiapp/k3) compared to WT (in words): S653T vs WT; for k3 (rate of recovery) / kiapp (apparent rate of enzyme inactivation): 160 mM pyruvate, 30 °C, ± SEM; for k3, single progress curve (Supplementary Figure 8) / kiapp, single progress curve (Supplementary Figure 8): individual replicate of triplicate
# Experimental: as §1, §6
# as §7, with “paper. […]” for “paper.”
# AtAHAS W574L mutant [9] = target: T4, AtAHAS W574L mutant; assay type: biochemical; conditions: for k3 (rate of recovery) / kiapp (apparent rate of enzyme inactivation): 160 mM pyruvate, 30 °C; for k3 (rate of recovery) / kiapp (apparent rate of enzyme inactivation) / kiapp/k3 (efficiency of accumulative inhibition): NAI = no accumulative inhibition detected
# Experimental: as §1, §6
# as §7, with “paper. […]” for “paper.”
# WT AtAHAS [10] = target: T5, WT AtAHAS; conditions: ± standard error of the mean, cited from earlier work
# [11] = Ki (Supplementary Figure 6), P197L, fit of % activity remaining vs [I], two independent replicates
# [12] = Ki, P197L mutant, ± standard error of the mean
# [13] = Ki, P197T mutant, ± standard error of the mean
# [14] = Ki, S653T mutant, ± standard error of the mean
# [15] = Ki (Supplementary Figure 6), W574L, fit of % activity remaining vs [I], two independent replicates
# [16] = Ki, W574L mutant, ± standard error of the mean
# [17] = individual replicate of triplicate
# [18] = P197T, individual replicate of triplicate
structure (smiles),measurement,setting,value
"COc1cc(OC)nc(Oc2cccc(Oc3nc(OC)cc(OC)n3)c2C(=O)O)n1 [BS, bispyribac]",Ki,AtAHAS P197L mutant [1]; [11],115 ± 13.4 nM
same,Ki,AtAHAS P197L mutant [1]; [12],115 ± 13 nM
same,loss of affinity,AtAHAS P197L mutant [1]; P197L vs WT,~ 50%
same,Ki,"AtAHAS P197T mutant [2]; Ki (Supplementary Figure 6), P197T, fit of % activity remaining vs [I], two independent replicates",106 ± 4.83 nM
same,Ki,AtAHAS P197T mutant [2]; [13],106 ± 4.8 nM
same,increase in Ki / loss of affinity compared to WT,AtAHAS P197T mutant [2]; P197T vs WT,around three-fold
same,loss of affinity,AtAHAS P197T mutant [2]; P197T vs WT,~ 50%
same,Ki,AtAHAS S653T mutant [3]; [14],90 ± 13.1 nM
same,loss of affinity,AtAHAS S653T mutant [3]; S653T vs WT,~ 50%
same,Ki,AtAHAS W574L mutant [4]; [15],6110 ± 988 nM
same,Ki,AtAHAS W574L mutant [4]; [16],6100 ± 1000 nM
same,increase in Ki / loss of affinity compared to WT,AtAHAS W574L mutant [4],150 fold
same,kiapp/k3 (efficiency of accumulative inhibition),WT AtAHAS [5],18
same,k3 (rate of recovery),WT AtAHAS [5],0.018 ± 0.002 min⁻¹
same,kiapp (apparent rate of enzyme inactivation),WT AtAHAS [5],0.32 ± 0.03 min⁻¹
same,"k3, single progress curve (Supplementary Figure 8)",WT AtAHAS [5],0.022 min⁻¹ and 0.018 min⁻¹ and 0.014 min⁻¹
same,"kiapp, single progress curve (Supplementary Figure 8)",WT AtAHAS [5],0.38 min⁻¹ and 0.28 min⁻¹ and 0.3 min⁻¹
same,k3 (rate of recovery),AtAHAS P197L mutant [6],0.037 ± 0.003 min⁻¹
same,kiapp (apparent rate of enzyme inactivation),AtAHAS P197L mutant [6],1.15 ± 0.09 min⁻¹
same,kiapp/k3 (efficiency of accumulative inhibition),AtAHAS P197L mutant [6],31
same,"k3, single progress curve (Supplementary Figure 8)",AtAHAS P197L mutant [6]; [17],0.043 min⁻¹ and 0.036 min⁻¹ and 0.032 min⁻¹
same,"kiapp, single progress curve (Supplementary Figure 8)",AtAHAS P197L mutant [6]; [17],1.33 min⁻¹ and 1.1 min⁻¹ and 1.03 min⁻¹
same,k3 (rate of recovery),AtAHAS P197T mutant [7]; P197T,0.031 ± 0.004 min⁻¹
same,kiapp (apparent rate of enzyme inactivation),AtAHAS P197T mutant [7]; P197T,1.14 ± 0.11 min⁻¹
same,kiapp/k3 (efficiency of accumulative inhibition),AtAHAS P197T mutant [7]; P197T,37
same,"k3, single progress curve (Supplementary Figure 8)",AtAHAS P197T mutant [7]; [18],0.035 min-1 (2×) and 0.023 min-1
same,"kiapp, single progress curve (Supplementary Figure 8)",AtAHAS P197T mutant [7]; [18],1.09 min⁻¹ and 0.98 min⁻¹ and 1.34 min⁻¹
same,increase in efficiency of accumulative inhibition compared to WT,AtAHAS P197T mutant [7]; P197 mutant vs WT (kiapp/k3),two-fold
same,kiapp/k3 (efficiency of accumulative inhibition),AtAHAS S653T mutant [8],39
same,efficiency of accumulative inhibition (kiapp/k3) compared to WT (in words),AtAHAS S653T mutant [8],increased
same,k3 (rate of recovery),AtAHAS S653T mutant [8],0.017 ± 0.001 min⁻¹
same,kiapp (apparent rate of enzyme inactivation),AtAHAS S653T mutant [8],0.66 ± 0.04 min⁻¹
same,"k3, single progress curve (Supplementary Figure 8)",AtAHAS S653T mutant [8],0.018 min⁻¹ and 0.019 min⁻¹ and 0.015 min⁻¹
same,"kiapp, single progress curve (Supplementary Figure 8)",AtAHAS S653T mutant [8],0.59 min⁻¹ and 0.71 min⁻¹ and 0.69 min⁻¹
same,accumulative inhibition (in words),AtAHAS W574L mutant [9],irreversible; also recorded: still can promote accumulative inhibition
same,k3 (rate of recovery),AtAHAS W574L mutant [9],<1e-12 min⁻¹
same,kiapp (apparent rate of enzyme inactivation),AtAHAS W574L mutant [9],0.03 ± 0.006 min⁻¹
same,kiapp/k3 (efficiency of accumulative inhibition),AtAHAS W574L mutant [9],>10^11
same,"k3, single progress curve (Supplementary Figure 8)",AtAHAS W574L mutant [9]; [17],~ 0 min-1
same,"kiapp, single progress curve (Supplementary Figure 8)",AtAHAS W574L mutant [9]; [17],0.043 min⁻¹ and 0.026 min⁻¹ and 0.025 min⁻¹
same,Ki,WT AtAHAS [10]; ref Garcia et al.[13],41 ± 6 nM
"COc1cnc(OC)n2nc(NS(=O)(=O)c3c(OCC(F)F)cccc3C(F)(F)F)nc12 [PS, penoxsulam]",Ki,AtAHAS P197L mutant [1]; [11],81.9 ± 7.26 nM
same,Ki,AtAHAS P197L mutant [1]; [12],82 ± 7 nM
same,Ki,AtAHAS P197T mutant [2]; [13],85 ± 6.3 nM
same,Ki,"AtAHAS S653T mutant [3]; Ki (Supplementary Figure 6), S653T, fit of % activity remaining vs [I], two independent replicates",5.04 ± 2.24 nM
same,Ki,AtAHAS S653T mutant [3]; [14],5 ± 2.2 nM
same,Ki,AtAHAS W574L mutant [4]; [15],67100 ± 2970 nM
same,Ki,AtAHAS W574L mutant [4]; [16],67100 ± 3000 nM
same,increase in Ki / loss of affinity compared to WT,AtAHAS W574L mutant [4],"35,000 fold"
same,kiapp/k3 (efficiency of accumulative inhibition),WT AtAHAS [5],87
same,k3 (rate of recovery),WT AtAHAS [5],0.014 ± 0.002 min⁻¹
same,kiapp (apparent rate of enzyme inactivation),WT AtAHAS [5],1.22 ± 0.09 min⁻¹
same,"k3, single progress curve (Supplementary Figure 8)",WT AtAHAS [5],0.017 min⁻¹ and 0.011 min⁻¹ and 0.013 min⁻¹
same,"kiapp, single progress curve (Supplementary Figure 8)",WT AtAHAS [5],1.4 min⁻¹ and 1.11 min⁻¹ and 1.17 min⁻¹
same,k3 (rate of recovery),AtAHAS P197L mutant [6],NAI
same,kiapp (apparent rate of enzyme inactivation),AtAHAS P197L mutant [6],NAI
same,kiapp/k3 (efficiency of accumulative inhibition),AtAHAS P197L mutant [6],NAI
same,k3 (rate of recovery),AtAHAS P197T mutant [7]; P197T,NAI
same,kiapp (apparent rate of enzyme inactivation),AtAHAS P197T mutant [7]; P197T,NAI
same,kiapp/k3 (efficiency of accumulative inhibition),AtAHAS P197T mutant [7]; P197T,NAI
same,kiapp/k3 (efficiency of accumulative inhibition),AtAHAS S653T mutant [8],126
same,efficiency of accumulative inhibition (kiapp/k3) compared to WT (in words),AtAHAS S653T mutant [8],increased
same,k3 (rate of recovery),AtAHAS S653T mutant [8],0.015 ± 0.001 min⁻¹
same,kiapp (apparent rate of enzyme inactivation),AtAHAS S653T mutant [8],1.89 ± 0.12 min⁻¹
same,"k3, single progress curve (Supplementary Figure 8)",AtAHAS S653T mutant [8],0.013 min⁻¹ and 0.016 min⁻¹ and 0.015 min⁻¹
same,"kiapp, single progress curve (Supplementary Figure 8)",AtAHAS S653T mutant [8],1.78 min⁻¹ and 2.1 min⁻¹ and 1.71 min⁻¹
same,k3 (rate of recovery),AtAHAS W574L mutant [9],NAI
same,kiapp (apparent rate of enzyme inactivation),AtAHAS W574L mutant [9],NAI
same,kiapp/k3 (efficiency of accumulative inhibition),AtAHAS W574L mutant [9],NAI
same,Ki,WT AtAHAS [10]; ref Lonhienne et al.[11],1.9 ± 0.9 nM
